Patent US6682904B1, “Specific inhibitors of hyaluronidase 2, and methods of identifying and using same” (Deliatroph Pharmaceuticals, Inc., priority 2002, dated 2004)

Tests used:
[1] = molecular target: T1, human plasma hyaluronidase (Homo sapiens, UniProt Q12794); test: Effect of EDTA and added calcium on activity of purified human plasma hyaluronidase; type: biochemical; details: purified preparations of human plasma hyaluronidase
T1 construct: made in house
T1 sequence (Q12794 22-435): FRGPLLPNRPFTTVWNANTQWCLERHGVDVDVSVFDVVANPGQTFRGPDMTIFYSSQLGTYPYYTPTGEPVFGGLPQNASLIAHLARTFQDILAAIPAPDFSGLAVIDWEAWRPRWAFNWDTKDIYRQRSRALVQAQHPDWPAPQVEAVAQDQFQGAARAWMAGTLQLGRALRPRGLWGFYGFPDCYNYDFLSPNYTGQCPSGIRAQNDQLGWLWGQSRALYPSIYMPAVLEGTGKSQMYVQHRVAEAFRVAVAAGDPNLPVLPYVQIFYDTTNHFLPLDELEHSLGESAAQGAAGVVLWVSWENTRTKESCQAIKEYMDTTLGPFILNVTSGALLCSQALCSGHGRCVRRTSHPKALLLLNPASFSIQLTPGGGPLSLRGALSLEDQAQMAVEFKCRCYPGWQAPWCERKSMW
Method: One hundred mg of human umbilical cord HA (ICN Pharmaceuticals; Irvine Calif.) was dissolved in 0.1 M MES, pH 5.0, to a final concentration of 1 mg/ml and allowed to dissolve for at least 24 hr at 4° C. prior to coupling of biotin. Sulfo-NHS (Pierce; Rockford Ill.) was added to the hyaluronate MES solution to a final concentration of 0.184 mg/ml. Biotin hydrazide (Pierce) was dissolved in DMSO as a stock solution of 100 mM and added to the HA solution to a final concentration of 1 mM. A stock solution of 1-ethyl-3-(3-dimethylaminopropyl) carbidodiimide (EDAC) was prepared as a 100 mM stock solution in distilled water and added to the HA biotin solution at a final concentration of 30 mM. This solution was left stirring overnight at 4° C. […]
(§1) The reaction was terminated by the addition of 200 μl/well of 6M Guanidine HCl followed by three washes of 300 μl/well with PBS, 2 M NaCl, 50 mM MgSO4, 0.05% TWEEN 20 detergent (Buffer B). […] The plate was incubated in the dark for 10-15 min, then read using a 492 nm filter in an ELISA plate reader (Titertek Multiskan PLUS; ICN) monitored by computer using the Delta Soft II plate reader software from Biometallics (Princeton N.J.). A standard curve using the bovine testicular hyaluronidase was generated by a four parameter curve fit of the commercial hyaluronidase preparation and unknown samples were interpolated through their absorbance at 492 nm.

[2] = system: human foreskin primary keratinocyte cultures; test: Hyaluronidase activity in primary foreskin keratinocyte cultures after calcium-induced differentiation; type: cell-based; details: 1.5 mM calcium compared to 0.05 mM calcium, 72 hr in culture
Method: Hyaluronidase activity also was characterized in normal keratinocytes. Primary foreskin keratinocyte cultures were generated from circumcision tissue from […]. Briefly, tissue was washed 5× in PBS with penicillin, streptomycin, and fungizone, followed by digestion overnight at 4° C. in dispase. Epithelium was stripped from mesenchymal tissue with forceps and digested in trypsin followed by plating on collagen-coated plates in KGM (keratinocyte growth medium) with 0.05 mM calcium (Clonetics; San Diego Calif.). Cells were used between the first and fourth passage. To test the effects of induction of differentiation on hyaluronidase activity, cells were plated into 6 well plates and, at confluence, the medium was either replaced with fresh KGM with 0.05 mM calcium or changed to KGM with 1.5 mM calcium.
Cell layers and conditioned media were harvested after 72 hr in culture. Cell layers were harvested with 60 mM octylglucoside with 50 U/ml DNase I (Boehringer Mannheim; Indianapolis Ind.) and Complete™ protease inhibitor cocktail (Boehringer Mannheim) in PBS. Cells were extracted for 30 min on ice followed by centrifugation at 10,000× g for 10 min. Conditioned media from each sample was treated with octylglucoside and protease inhibitors. […] Activity was expressed as rTRU/mg cellular protein.

[3] = Microtiter-based hyaluronidase assay on immobilized biotinylated HA, pH dependence of enzyme activity; type: biochemical
Method: One hundred mg of human umbilical cord HA (ICN Pharmaceuticals; Irvine Calif.) was dissolved in 0.1 M MES, pH 5.0, to a final concentration of 1 mg/ml and allowed to dissolve for at least 24 hr at 4° C. prior to coupling of biotin. Sulfo-NHS (Pierce; Rockford Ill.) was added to the hyaluronate MES solution to a final concentration of 0.184 mg/ml. Biotin hydrazide (Pierce) was dissolved in DMSO as a stock solution of 100 mM and added to the HA solution to a final concentration of 1 mM. A stock solution of 1-ethyl-3-(3-dimethylaminopropyl) carbidodiimide (EDAC) was prepared as a 100 mM stock solution in distilled water and added to the HA biotin solution at a final concentration of 30 mM. This solution was left stirring overnight at 4° C. Unlinked biotin and EDAC were removed by dialysis against water with 3 changes of 1000× volume of water. The dialyzed, biotinylated HA (bHA) was aliquoted and stored at −20° C. for up to several months.
Sulfo-NHS was diluted to 0.184 mg/ml in water with the bHA at a concentration of 0.2 mg/ml and pipetted into 96 well COVALINK-NH plates (NUNC; Placerville N.J.) at 50 μl per well. EDAC was diluted to 0.123 mg/ml in water and pipetted into the COVALINK-NH plates with the HA solution resulting in a final concentration of 10 μg/well hyaluronate and 6.15 μg/well EDAC. […]
as §1, with “nm. […]” for “nm.”

In the case of `O=C(O)CN(CCN(CC(=O)O)CC(=O)O)CC(=O)O` [EDTA, reference compound], the “inhibitory effect on enzyme activity” value [1] is reported as “no inhibitory effect”.

For `[Ca+2]` [calcium], the “stimulatory effect on enzyme activity” value ([1]; added calcium) was “nor did added calcium have a stimulatory effect” and the “increase in hyaluronidase activity in conditioned media and cell layer” value [2] was “approximately 25 fold”.

B1: Recombinant human plasma hyaluronidase: immunoaffinity purified recombinant human plasma hyaluronidase (HYAL1), acid-active enzyme (protein)
chain: T1 sequence (Q12794 22-435)
In the case of B1, the “pH optimum of hyaluronidase activity” value ([3]; 0.1 rTRU enzyme, 50 mM buffers pH 3-8 without NaCl, 30 min at 37° C.) is reported as 3.8 pH, the “enzyme activity above pH 4.5” value ([3]; above pH 4.5) is reported as “no detectable activity” and the “enzyme activity at neutral pH” value ([3]; neutral pH) is reported as “no activity was detected”.
